Assay results taken from patent publication US20120245161A1 (SANOFI, priority 2009, published 2012).
Counter-ions that a name gives are not always drawn.

What follows are molecules tested against T1, recombinant human beta tryptase (Homo sapiens, UniProt P20231) (assay: beta-Tryptase inhibition, chromogenic enzyme assay (substrate S2366, read at 405 nm)). Details: Ki calculated from IC50: Ki=IC50/(1+[Substrate]/Km); 0.5 mM substrate, room temperature; read-out: Tryptase Ki.
T1 construct: made in house; host or cells: yeast cells
Type: biochemical
Excerpt: Inhibition of this catalytic activity may be measured by the in vitro enzyme assay and the cellular assay.
Tryptase inhibition activity is confirmed using either isolated human lung tryptase or recombinant human beta tryptase expressed in yeast cells. Essentially equivalent results are obtained using isolated native enzyme or the expressed enzyme. The assay procedure employs a 96 well microplate (Costar 3590) using L-pyroglutamyl-L-prolyl-L-arginine-para-nitroanilide (S2366: Quadratech) as substrate (essentially as described by McEuen et. al. Biochem Pharm, 1996, 52, pages 331-340). Assays are performed at room temperature using 0.5 mM substrate (2×Km) and the microplate is read on a microplate reader (Beckman Biomek Plate reader) at 405 nm wavelength.
Materials and Methods for Tryptase primary screen (Chromogenic assay)
S2366 (Stock solutions of 2.5 mM).
Purified recombinant beta Tryptase Stocks of 310 μg/mL. Protocol (Single point determination) • Add 60 μL of diluted substrate (final concentration of 500 μM in assay buffer) to each well • Add compound in duplicates, final concentration of 20 volume 20 • Add enzyme at a final concentration of 50 ng/mL in a volume of 20 • Total volume for each well is 100 • Agitate briefly to mix and incubate at room temp in the dark for 30 minutes • Read absorbencies at […] Each plate has the following controls: • Totals: 60 μL of substrate, 20 μL of buffer (with 0.2% final concentration of DMSO), • 20 μL of enzyme Non-specific: 60 μL of substrate, 40 μL of buffer (with 0.2% DMSO) Totals: 60 μL of substrate, 20 μL of buffer (No DMSO), 20 μL of enzyme Non-specific: 60 μL of substrate, 40 μL of buffer (No DMSO) Protocol (IC50 and Ki determination)
The protocol is essentially the same as above except that the compound is added in duplicates at the following final concentrations: 0.01, 0.03, 0.1, 0.3, 1, 3, 10 μM (All dilutions carried out manually). For every assay, whether single point or IC50 determination, a standard compound is used to derive IC50 for comparison. From the IC50 value, the Ki can be calculated using the following formula: Ki=IC50/(1+[Substrate]/Km).

T1 sequence (P20231 31-275): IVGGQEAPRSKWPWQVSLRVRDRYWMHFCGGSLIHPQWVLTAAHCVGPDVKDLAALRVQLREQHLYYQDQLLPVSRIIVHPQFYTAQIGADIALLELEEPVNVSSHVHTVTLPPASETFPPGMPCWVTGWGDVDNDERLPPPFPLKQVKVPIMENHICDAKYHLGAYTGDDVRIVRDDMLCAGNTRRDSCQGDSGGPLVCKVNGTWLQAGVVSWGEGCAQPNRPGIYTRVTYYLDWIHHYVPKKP

Q: For `COCCn1cc(C(=O)N2CCC(c3cc(CN)ccc3F)CC2)c2c(-c3ccnc(C)c3)cccc21` [Example 83, [4-(5-Aminomethyl-2-fluoro-phenyl)-piperidin-1-yl]-[1-(2-methoxy-ethyl)-4-(2-methyl-pyridin-4-yl)-1H-indol-3-yl]-methanone dihydrochloride], which Ki is on record?
A: Its Ki is 5 nM.

Q: How did the Ki turn out when `COCCn1cc(C(=O)N2CCC(c3cccc(CN)n3)CC2)c2cccc(C)c21` [Example 113, (6-Aminomethyl-3′,4′,5′,6′-tetrahydro-2′H-[2,4]bipyridinyl-1′-yl)-[1-(2-methoxy-ethyl)-7-methyl-1H-indol-3-yl]-methanone dihydrochloride] was run?
A: Its Ki is 656 nM.

Q: Which Ki does the source give for `Cc1cccc2c(C(=O)N3CCC(c4cc(CN)ccc4F)CC3)cn(CCN3CCCC3)c12` [Example 13, [4-(5-Aminomethyl-2-fluoro-phenyl)-piperidin-1-yl]-[7-methyl-1-(2-pyrrolidin-1-yl-ethyl)-1H-indol-3-yl]-methanone dihydrochloride] here?
A: Its Ki is 75 nM.

Q: `Cc1cccc2c(C(=O)N3CCC(c4cc(CN)ccc4F)CC3)cn(CCn3ccnc3)c12` [Example 62, [4-(5-Aminomethyl-2-fluoro-phenyl)-piperidin-1-yl]-[1-(2-imidazol-1-yl-ethyl)-7-methyl-1H-indol-3-yl]-methanone dihydrochloride] was tested. Which Ki did it give?
A: The Ki was 22 nM.

Q: For `COCCn1cc(C(=O)N2CCC(c3cc(CN)ccc3F)CC2)c2c(-c3ccnc(OC)c3)cccc21` [Example 85, [4-(5-Aminomethyl-2-fluoro-phenyl)-piperidin-1-yl]-[1-(2-methoxy-ethyl)-4-(2-methoxy-pyridin-4-yl)-1H-indol-3-yl]-methanone dihydrochloride], which Ki is on record?
A: The Ki was 9 nM.

Same assay, conditions: Tryptase Ki (nM), Ki calculated from IC50: Ki=IC50/(1+[Substrate]/Km); 0.5 mM substrate, room temperature

Q: `COCCn1cc(C(=O)N2CCC(c3cc(CN)ccc3F)CC2)c2c(CCC(C)(C)O)cccc21` [Example 55, [4-(5-Aminomethyl-2-fluoro-phenyl)-piperidin-1-yl]-[4-(3-hydroxy-3-methyl-butyl)-1-(2-methoxy-ethyl)-1H-indol-3-yl]-methanone hydrochloride] was tested. Which Ki did it give?
A: Its Ki is 72 nM.

Q: Which Ki does the source give for `COCCn1cc(C(=O)N2CCC(c3cc(CN)ccc3F)CC2)c2c(-c3ccc(OC(F)(F)F)cc3)cccc21` [Example 69, [4-(5-Aminomethyl-2-fluoro-phenyl)-piperidin-1-yl]-[1-(2-methoxy-ethyl)-4-(4-trifluoromethoxy-phenyl)-1H-indol-3-yl]-methanone hydrochloride] here?
A: Its Ki is 400 nM.

Q: How did the Ki turn out when `COCCn1cc(C(=O)N2CCC(c3cc(CN)ccc3OCC(=O)OC)CC2)c2cccc(OC(F)(F)F)c21` [Example 24, (4-Aminomethyl-2-{1-[1-(2-methoxy-ethyl)-7-trifluoromethoxy-1H-indole-3-carbonyl]-piperidin-4-yl}-phenoxy)-acetic acid methyl ester hydrochloride] was run?
A: The Ki was 98 nM.

Q: For `NCc1ccc(F)c(C2CCN(C(=O)c3cn(CCOC(F)(F)F)c4cccc(-c5ccccc5)c34)CC2)c1` [Example 80, [4-(5-Aminomethyl-2-fluoro-phenyl)-piperidin-1-yl]-[4-phenyl-1-(2-trifluoromethoxy-ethyl)-1H-indol-3-yl]-methanone hydrochloride], which Ki is on record?
A: Its Ki is 961 nM.

Q: `COCCn1cc(C(=O)N2CCC(c3cc(CN)ccc3OCC(=O)N(C)C)CC2)c2cccc(C)c21` [Example 25, 2-(4-Aminomethyl-2-{1-[1-(2-methoxy-ethyl)-7-methyl-1H-indole-3-carbonyl]-piperidin-4-yl}-phenoxy)-N,N-dimethyl-acetamide hydrochloride] was tested. Which Ki did it give?
A: Its Ki is 672 nM.

Q: Which Ki does the source give for `COCCn1cc(C(=O)N2CCC(c3cc(CN)ccc3F)CC2)c2c(NS(=O)(=O)N(C)C)cccc21` [Example 104, Dimethylamino-1-sulfonic acid [3-[4-(5-aminomethyl-2-fluoro-phenyl)-piperidine-1-carbonyl]-1-(2-methoxy-ethyl)-1H-indol-4-yl]-amide] here?
A: The Ki was 204 nM.

Q: `NCc1ccc(F)c(C2CCN(C(=O)c3cn(CCCF)c4c(OC(F)(F)F)cccc34)CC2)c1` [Example 34, [4-(5-Aminomethyl-2-fluoro-phenyl)-piperidin-1-yl]-[1-(3-fluoro-propyl)-7-trifluoromethoxy-1H-indol-3-yl]-methanone hydrochloride] was tested. Which Ki did it give?
A: Its Ki is 1010 nM.

Q: For `COCCn1cc(C(=O)N2CCC(c3cc(CN)ccc3F)CC2)c2c(F)cccc21` [Example 51, [4-(5-Aminomethyl-2-fluoro-phenyl)-piperidin-1-yl]-[4-fluoro-1-(2-methoxy-ethyl)-1H-indol-3-yl]-methanone hydrochloride], which Ki is on record?
A: The Ki was 54 nM.

Q: Which Ki does the source give for `COCCn1cc(C(=O)N2CCC(c3cc(CN)ccc3F)CC2)c2c(NC(=O)c3cnco3)cccc21` [Example 124, Oxazole-5-carboxylic acid [3-[4-(5-aminomethyl-2-fluoro-phenyl)-piperidine-1-carbonyl]-1-(2-methoxy-ethyl)-1H-indol-4-yl]-amide hydrochloride] here?
A: The Ki was 8 nM.

Q: `COCCn1cc(C(=O)N2CCC(c3cc(CN)ccc3F)CC2)c2c(NC(=O)C3CCCN(C)C3)cccc21` (stereo not drawn) [Example 122, 1-Methyl-piperidine-3-carboxylic acid [3-[4-(5-aminomethyl-2-fluoro-phenyl)-piperidine-1-carbonyl]-1-(2-methoxy-ethyl)-1H-indol-4-yl]-amide hydrochloride] was tested. Which Ki did it give?
A: Its Ki is 44 nM.

Q: With `COCCn1cc(C(=O)N2CCC(c3cc(CN)ccc3C(F)(F)F)CC2)c2cccc(C)c21` [Example 110, [4-(5-Aminomethyl-2-trifluoromethyl-phenyl)-piperidin-1-yl]-[1-(2-methoxy-ethyl)-7-methyl-1H-indol-3-yl]-methanone hydrochloride] as the molecule, how does the Ki read?
A: Its Ki is 1260 nM.

Q: `COCCn1cc(C(=O)N2CCC(c3cc(CN)ccc3F)CC2)c2c(C(F)(F)F)cccc21` [Example 53, [4-(5-Aminomethyl-2-fluoro-phenyl)-piperidin-1-yl]-[1-(2-methoxy-ethyl)-4-trifluoromethyl-1H-indol-3-yl]-methanone hydrochloride] was tested. Which Ki did it give?
A: The Ki was 289 nM.

Q: How did the Ki turn out when `CCCCn1cc(C(=O)N2CCC(c3cc(CN)ccc3F)CC2)c2cccc(OC(F)(F)F)c21` [Example 43, [4-(5-Aminomethyl-2-fluoro-phenyl)-piperidin-1-yl]-(1-butyl-7-trifluoromethoxy-1H-indol-3-yl)-methanone hydrochloride] was run?
A: Its Ki is 850 nM.

Q: `Cc1cccc2c(C(=O)N3CCC(c4cc(CN)ccc4F)CC3)cn(CCN3CCOCC3)c12` [Example 3, [4-(5-Aminomethyl-2-fluoro-phenyl)-piperidin-1-yl]-[7-methyl-1-(2-morpholin-4-yl-ethyl)-1H-indol-3-yl]-methanone hydrochloride] was tested. Which Ki did it give?
A: Its Ki is 109 nM.

Q: `COCCn1cc(C(=O)N2CCC(c3cc(CN)ccc3F)CC2)c2cccc(OC(F)F)c21` [Example 14, [4-(5-Aminomethyl-2-fluoro-phenyl)-piperidin-1-yl]-[7-difluoromethoxy-1-(2-methoxy-ethyl)-1H-indol-3-yl]-methanone hydrochloride] was tested. Which Ki did it give?
A: The Ki was 83 nM.

Q: How did the Ki turn out when `COCCn1cc(C(=O)N2CCC(c3cc(CN)ccn3)CC2)c2cccc(C)c21` [Example 119, (4-Aminomethyl-3′,4′,5′,6′-tetrahydro-2′H-[2,4′]bipyridinyl-1′-yl)-[1-(2-methoxy-ethyl)-7-methyl-1H-indol-3-yl]-methanone hydrochloride] was run?
A: Its Ki is 180 nM.

Q: Which Ki does the source give for `COCCn1cc(C(=O)N2CCC(c3cc(CN)ccc3F)CC2)c2cccc(C(F)(F)F)c21` [Example 11, [4-(5-Aminomethyl-2-fluoro-phenyl)-piperidin-1-yl]-[1-(2-methoxy-ethyl)-7-trifluoromethyl-1H-indol-3-yl]-methanone hydrochloride] here?
A: The Ki was 56 nM.

Q: Which Ki does the source give for `COCCn1cc(C(=O)N2CCC(c3cc(CN)ccc3OCC(=O)N(C)C)CC2)c2cccc(OC(F)(F)F)c21` [Example 29, 2-(4-Aminomethyl-2-{1-[1-(2-methoxy-ethyl)-7-trifluoromethoxy-1H-indole-3-carbonyl]-piperidin-4-yl}-phenoxy)-N,N-dimethyl-acetamide hydrochloride] here?
A: Its Ki is 331 nM.

Q: For `COCCn1cc(C(=O)N2CCC(c3cc(CN)ccc3F)CC2)c2c(NC(=O)C3CCOCC3)cccc21` [Example 95, Tetrahydro-pyran-4-carboxylic acid [3-[4-(5-aminomethyl-2-fluoro-phenyl)-piperidine-1-carbonyl]-1-(2-methoxy-ethyl)-1H-indol-4-yl]-amide hydrochloride], which Ki is on record?
A: Its Ki is 44 nM.

Q: With `COCCn1cc(C(=O)N2CCC(c3cc(CN)ccc3F)CC2)c2c(OC3CC3)cccc21` [Example 58, [4-(5-Aminomethyl-2-fluoro-phenyl)-piperidin-1-yl]-[4-cyclopropoxy-1-(2-methoxy-ethyl)-1H-indol-3-yl]-methanone hydrochloride] as the molecule, how does the Ki read?
A: Its Ki is 108 nM.

Same assay, conditions: Tryptase Ki (nM), additional value in parentheses tagged "719D" (code not explained)

Q: Which Ki does the source give for `COCCn1cc(C(=O)N2CCC(c3cc(CN)ccc3F)CC2)c2c(NC(=O)C3CCOCC3)cccc21` [Example 95, Tetrahydro-pyran-4-carboxylic acid [3-[4-(5-aminomethyl-2-fluoro-phenyl)-piperidine-1-carbonyl]-1-(2-methoxy-ethyl)-1H-indol-4-yl]-amide hydrochloride] here?
A: The Ki was 47 nM.

Same assay, conditions: Tryptase Ki (nM), additional value in parentheses tagged "8923" (code not explained)

Q: For `COCCn1cc(C(=O)N2CCC(c3cc(CN)ccc3F)CC2)c2c(NC(=O)C3CCOCC3)cccc21` [Example 95, Tetrahydro-pyran-4-carboxylic acid [3-[4-(5-aminomethyl-2-fluoro-phenyl)-piperidine-1-carbonyl]-1-(2-methoxy-ethyl)-1H-indol-4-yl]-amide hydrochloride], which Ki is on record?
A: The Ki was 15 nM.
